Patent publication US20110301078A1, “PREVENTION OF BACTERIAL GROWTH AND BIOFILM FORMATION BY LIGANDS THAT ACT ON CANNABINOIDERGIC SYSTEMS” (priority 2008, published 2011)

How the values were obtained:
mammalian CB2 receptors = mammalian CB2 receptors (Homo sapiens, UniProt P34972); conditions: cited from earlier work
[1] = system: gram-positive bacteria, including Streptococcus agalactiae, Enterococcus faecalis, Staphylococcus epidermidis, and prominent MRSA strains; test: Growth and biofilm formation of gram-positive strains, crystal violet stain quantified at 600 nm (Example 2, FIG. 3); assay type: cell-based; conditions: 30 μM, overnight, 35±2° C.; for growth of gram-positive bacteria, including MRSA: 2 mL broth; for biofilm formation of gram-positive bacteria, including MRSA: crystal violet stain solubilized, 600 nm
Experimental: (§1) The efficacy of the compounds were again tested against different strains of gram-positive bacteria, including Streptococcus agalactiae, Enterococcus faecalis, Staphylococcus epidermidis, and prominent MRSA (hospital-acquired and community-acquired) strains. Broth inoculum was prepared from 18-24 hours old colonies grown on standard agar plates. Approximately four of the fresh colonies were swiped with a sterile cotton Q-tip and then suspended in saline by immersion and light swirling. The turbidity was adjusted to equal that of a 0.5 McFarland turbidity standard using a spectrophotometer (600 nm). The amount corresponded to about 1.5×10^8 CFU/mL, where CFU stands for colony-forming units, and is equivalent to an absorbance at 600 nm equal to 0.132 or a percentage transmission equal to 74.3. […] Sterile 4 mL polystyrene tubes (12×75 mm) with caps were used for this purpose.
The bacteria were allowed to incubate overnight in 2 mL broth at 35±2° C. in the presence or absence of various experimental compounds or antibiotics. The amount of biofilm was visualized qualitatively, then stained with crystal violet. Biofilm attached to the side of the tube was stained purple. After staining, the tubes were decanted and rinsed, leaving stained biofilm adhering to the tubes. Next, the stain was solubilized and mixed with ethanol (EtOH) or dimethylsulfoxide (DMSO). The turbidity of the so lubilized stain, or lack thereof, was then quantified in a spectrophotometer (600 nm). In the broth only sample, no bacteria were added. In the negative controls, no compounds were added. The vehicle controls were made up of the appropriate dilution of the different solvent used to dissolve the experimental compounds, including ethanol (EtOH) or dimethylsulfoxide (DMSO). The experimental compounds tested included 30 μM of CP55,940, 30 μM of O-2050, 30 μM of linoleyl ethanolamide, 30 μM of no ladin ether, and 30 μM of anandamide (natural product 2). High concentrations of silver nitrate (1000 μM) and vancomycin (50 μg/mL) served as positive antimicrobial controls.

mammalian CB1 receptors = mammalian CB1 receptors (Homo sapiens, UniProt P21554); conditions: cited from earlier work
MRSA bacteria = test: MRSA bacterial growth and biofilm formation in broth tubes, crystal violet stain (Example 1, FIG. 2); assay type: cell-based, Methicillin-resistant Staphylococcus aureus; conditions: about 5000 CFU/mL, 16-20 hours, 2 mL broth, 35±2° C., CP55,940 and LEA at 30 μm; for MRSA biofilm formation: crystal violet, qualitative
Experimental: as §1, with “broth” for “efficacy of the compounds were again tested against different strains of gram-positive bacteria, including Streptococcus agalactiae, Enterococcus faecalis, Staphylococcus epidermidis, and prominent MRSA (hospital-acquired and community-acquired) strains. Broth”
MRSA bacteria (about 5000 CFU/mL) were allowed to grow for 16-20 hours in 2 mL broth at 35±2° C. in the presence or absence of various experimental compounds or antibiotics. The amount of biofilm was visualized qualitatively after being stained with crystal violet. Biofilm attached to the side of the tube was stained purple. The compounds CP55,940, LEA, and capsaicin were all tested at 30 μm. In the negative control, no compounds were added. The vehicle controls were made up of the appropriate dilution of the different solvent used to dissolve the experimental compounds, including methanol (MeOH), ethanol (EtOH) or dimethylsulfoxide (DMSO). The experimental compounds tested included CP55,940, noladin ether, O-2050, and linoleyl ethanolamide. High concentrations of the antibiotics zeocin and ampicillin served as positive antimicrobial controls. […] The no bacteria group contained only media and no bacteria, and served as another control.

mammalian CB2 receptors, sequence (P34972 whole entry): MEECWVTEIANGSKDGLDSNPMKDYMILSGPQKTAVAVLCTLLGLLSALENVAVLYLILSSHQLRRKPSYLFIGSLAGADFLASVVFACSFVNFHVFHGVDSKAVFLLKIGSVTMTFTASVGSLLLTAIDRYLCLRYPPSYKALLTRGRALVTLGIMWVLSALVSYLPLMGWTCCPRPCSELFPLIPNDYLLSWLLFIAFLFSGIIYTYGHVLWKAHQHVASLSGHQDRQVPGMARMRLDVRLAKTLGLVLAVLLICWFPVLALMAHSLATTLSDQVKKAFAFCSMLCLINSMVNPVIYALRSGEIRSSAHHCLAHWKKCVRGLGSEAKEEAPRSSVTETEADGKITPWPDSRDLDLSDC
mammalian CB1 receptors, sequence (P21554 whole entry): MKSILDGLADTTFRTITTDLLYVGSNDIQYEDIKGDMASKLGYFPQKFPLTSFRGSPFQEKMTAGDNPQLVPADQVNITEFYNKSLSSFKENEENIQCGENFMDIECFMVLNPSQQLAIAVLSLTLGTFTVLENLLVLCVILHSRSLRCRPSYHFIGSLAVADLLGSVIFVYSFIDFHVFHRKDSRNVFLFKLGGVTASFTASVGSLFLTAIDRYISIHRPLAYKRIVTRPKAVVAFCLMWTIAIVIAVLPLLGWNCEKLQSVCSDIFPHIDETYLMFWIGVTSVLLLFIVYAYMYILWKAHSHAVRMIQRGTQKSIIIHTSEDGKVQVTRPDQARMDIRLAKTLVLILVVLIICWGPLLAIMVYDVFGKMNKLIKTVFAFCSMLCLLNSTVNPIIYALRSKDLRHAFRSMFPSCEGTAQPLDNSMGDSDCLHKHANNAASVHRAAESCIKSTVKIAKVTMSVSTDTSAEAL

SMILES	affinity for CB2 receptor (mammalian CB2 receptors)	growth of gram-positive bacteria, including MRSA [1]	biofilm formation of gram-positive bacteria, including MRSA [1]	affinity for CB1 receptor (mammalian CB1 receptors)	MRSA growth (MRSA bacteria)	MRSA biofilm formation (MRSA bacteria)
CCCCC/C=C\C/C=C\CCCCCCCC(=O)NCCO [LEA, N-(2-hydroxyethyl)-9Z,12Z-octadecadienamide]	poor affinity	prevent	prevent	poor affinity	prevent	prevent
CN[C@H]1C[C@@H](N)[C@H](O)[C@@H](O[C@@H]2O[C@H](CO)[C@H](O)[C@@H]3OC4(O[C@H]23)O[C@H]([C@@H](N)CO)[C@H](O)[C@H](O)[C@H]4O)[C@@H]1O (stereo partly shown) [Hydromycin B, reference compound]					Relatively ineffective	
CC1=CC[C@@H]2[C@@H](C1)c1c(O)cc(CC#CCCCNS(C)(=O)=O)cc1OC2(C)C [Compound O-2050]		prevent	prevent		prevent	prevent
CCCCCCC(C)(C)c1ccc([C@@H]2C[C@H](O)CC[C@H]2CCCO)c(O)c1 [CP55,940, (−)-cis-3-[2-Hydroxy-4-(1,1-dimethylheptyl)phenyl]-tran s-4-(3-hydroxypropyl)cyclohexanol]	high affinity	prevent	prevent	high affinity	prevent	prevent
CCCCC/C=C\C/C=C\C/C=C\C/C=C\CCCCOC(CO)CO [noladin ether, 2-[(5Z,8Z,11Z,14Z)-eicosatetraenyloxy]-1,3-propanediol]					prevent	prevent
